Laboratory results as given in US12030896B2, “PIKfyve inhibitors” (Mayo Foundation for Medical Education and Research, priority 2018, dated 2024).

Test system: U251
Assay: U251 Vacuolization Assay (24h)
Assay type: cell-based
Conditions: Homo sapiens, U-251
Experimental: As used herein the term “EC50 (μM)” refers to the μM concentration of a compound that is required for 50% activity in a vacuolization assay.
Example A—U251 Vacuolization Assay Data (24h) for Compounds of Examples 8-56

For `Cc1ccccc1Nc1nc(N/N=C/c2c[nH]c3ccccc23)nc(N2CCOCC2)n1` [Example 19, {4-[N′-(1H-Indol-3-ylmethylene)-hydrazino]-6-morpholin-4-yl-[1,3,5]triazin-2-yl}-o-tolyl-amine], the EC50 was at most 1000 nM.

Compound `Cc1ccc(Nc2nc(NCc3c[nH]c4ccccc34)nc(N3CCOCC3)n2)cc1` [Example 8, N-(1H-Indol-3-ylmethyl)-6-morpholin-4-yl-N′-p-tolyl-[1,3,5]triazine-2,4-diamine] has an EC50 of 1000 to 10000 nM.

In the case of `Cc1ccc(Nc2nc(N/N=C/c3c[nH]c4ccccc34)nc(N3CCCC3)n2)cc1` [Example 16, {4-[N′-(1H-Indol-3-ylmethylene)-hydrazino]-6-pyrrolidin-1-yl-[1,3,5]triazin-2-yl}-p-tolyl-amine], the EC50 is reported as over 50000 nM.

`C(=N\Nc1nc(Nc2cccc3ccccc23)nc(N2CCOCC2)n1)/c1c[nH]c2ccccc12` [Example 55, (E)-4-(2-((1H-indol-3-yl)methylene)hydrazinyl)-6-morpholino-N-(naphthalen-1-yl)-1,3,5-triazin-2-amine] was tested, and the EC50 was at most 1000 nM.

With `COCCN(c1nc(N/N=C/c2c[nH]c3ccccc23)nc(Nc2ccc(C)cc2)n1)C(C)C` [Example 51, (E)-6-(2-((1H-Indol-3-yl)methylene)hydrazinyl)-N2-isopropyl-N2-(2-methoxyethyl)-N4-(p-tolyl)-1,3,5-triazine-2,4-diamine] the EC50 was 1000 to 10000 nM.

With `N#Cc1ccc(Nc2nc(N/N=C/c3c[nH]c4ccccc34)nc(N3CCOCC3)n2)cc1` [Example 22, (E)-4-((4-(2-((1H-indol-3-yl)methylene)hydrazinyl)-6-morpholino-1,3,5-triazin-2-yl)amino)benzonitrile] the EC50 was at most 1000 nM.

`Cc1ccc(Nc2cc(N/N=C/c3c[nH]c4ccccc34)nc(N3CCOCC3)n2)cc1` [Example 39] gave an EC50 of 1000 to 10000 nM.

`COC1CCN(c2nc(N/N=C/c3c[nH]c4ccccc34)nc(Nc3ccc(C)cc3)n2)CC1` [Example 49, (E)-4-(2-((1H-Indol-3-yl)methylene)hydrazinyl)-6-(4-methoxypiperidin-1-yl)-N-(p-tolyl)-1,3,5-triazin-2-amine] showed an EC50 of over 50000 nM.

In the case of `Cc1ccc(Nc2nc(N/N=C/c3ccccn3)nc(N3CCOCC3)n2)cc1` [Example 43, [4-Morpholin-4-yl-6-(N′-pyridin-2-ylmethylene-hydrazino)-[1,3,5]triazin-2-yl]-p-tolyl-amine], the EC50 is reported as 1000 to 10000 nM.

`CC(=O)Nc1ccc(Nc2nc(N/N=C/c3c[nH]c4ccccc34)nc(N3CCOCC3)n2)cc1` [Example 28, (E)-N-(4-((4-(2-((1H-indol-3-yl)methylene)hydrazinyl)-6-morpholino-1,3,5-triazin-2-yl)amino)phenyl)acetamide] gave an EC50 of at most 1000 nM.

`Clc1cccc(Nc2nc(N/N=C/c3c[nH]c4ccccc34)nc(N3CCOCC3)n2)c1` [Example 25, (3-Chloro-phenyl)-{4-[N′-(1H-indol-3-ylmethylene)-hydrazino]-6-morpholin-4-yl-[1,3,5]triazin-2-yl}-amine] was tested, and the EC50 was at most 1000 nM.

In the case of `Cc1ccc(Nc2nc(N/N=C/c3c[nH]c4ccccc34)nc(N3CCc4ccccc4C3)n2)cc1` [Example 47, (E)-4-(2-((1H-Indol-3-yl)methylene)hydrazinyl)-6-(3,4-dihydroisoquinolin-2(1H)-yl)-N-(p-tolyl)-1,3,5-triazin-2-amine], the EC50 is reported as at most 1000 nM.

`Cc1ccc(Nc2nc(N/N=C\c3coc4ccccc34)nc(N3CCOCC3)n2)cc1` [Example 53, 4-(2-(benzofuran-3-ylmethylene)hydrazinyl)-6-morpholino-N-(p-tolyl)-1,3,5-triazin-2-amine] was tested, and the EC50 was over 50000 nM.

With `Cc1ccc(Nc2nc(N/N=C/c3c[nH]c4ccccc34)nc(N3CCOCC3)n2)nc1` [Example 45, {4-[N′-(1H-Indol-3-ylmethylene)-hydrazino]-6-morpholin-4-yl-[1,3,5]triazin-2-yl}-(5-methyl-pyridin-2-yl)-amine] the EC50 was at most 1000 nM.

`Clc1ccc(Nc2nc(N/N=C/c3c[nH]c4ccccc34)nc(N3CCOCC3)n2)cc1` [Example 11, (E)-4-(2-((1h-indol-3-yl)methylene)hydrazinyl)-n-(4-chlorophenyl)-6-morpholino-1,3,5-triazin-2-amine] was tested, and the EC50 was at most 1000 nM.
